Experimental data: patent US11051515B2, “3-acyl-benzamides and their use as herbicides” (Bayer Aktiengesellschaft, priority 2017, dated 2021)

What was measured:
[1] = test system: AMARE; assay: Pre-emergence action against AMARE; assay type: in vivo, Amaranthus retroflexus; details: pre-emergence, dosage 320 g/ha, scored visually after 3 weeks vs untreated controls
Procedure, shortened: (§1)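 Seeds sown in sandy loam in wood-fiber pots and covered with soil. Greenhouse growth; visual damage scored after 3 weeks versus untreated controls (100% = dead, 0% = like control).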

[2] = test system: VIOTR; assay: Post-emergence action against VIOTR; assay type: in vivo, Viola tricolor; details: post-emergence, dosage 80 g/ha
Procedure, shortened: (§2)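 Weeds grown in sandy loam in greenhouse, treated at one-leaf stage (2–3 weeks after sowing) with WP or EC formulations sprayed as aqueous suspension/emulsion at 600 to […] water with 0.2% wetting agent. Visual rating after about 3 weeks versus untreated controls, as % herbicidal action (100% = plants dead, 0% = like control).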

[3] = test system: STEME; assay: Post-emergence action against STEME; assay type: in vivo, Stellaria media; details: post-emergence, dosage 80 g/ha
Procedure, shortened: as §2

[4] = test system: MATIN; assay: Pre-emergence action against MATIN; assay type: in vivo, Matricaria inodora; details: Dosage 320 g/ha, pre-emergence
Procedure, shortened: as §1

[5] = test system: ALOMY; assay: Pre-emergence action against ALOMY; assay type: in vivo, Alopecurus myosuroides; details: dosage 320 g/ha, pre-emergence, scored visually after 3 weeks vs untreated controls, 100% = plants have died, 0% = like control plants
Procedure, shortened: as §1

[6] = test system: MATIN; assay: Post-emergence action against MATIN; assay type: in vivo, Matricaria inodora; details: post-emergence, dosage 80 g/ha, visual assessment about 3 weeks after treatment vs untreated controls
Procedure, shortened: as §2

[7] = test system: POLCO; assay: Pre-emergence action against POLCO; assay type: in vivo, Polygonum convolvulus; details: Dosage 320 g/ha, pre-emergence
Excerpt: Seeds of monocotyledonous and dicotyledonous weed plants and crop plants are laid out in sandy loam soil in wood-fiber pots and covered with soil. The compounds of the invention, formulated in the form of wettable powders (WP) or as emulsion concentrates (EC), are then applied to the surface of the covering soil in the form of an aqueous suspension or emulsion at a water application rate equating to […], with addition of 0.2% wetting agent. After the treatment, the pots are placed in a greenhouse and kept under good growth conditions for the trial plants. The damage to the test plants is scored visually after a test period of 3 weeks by comparison with untreated controls (herbicidal activity in percent (%): 100% activity=the plants have died, 0% activity=like control plants).

[8] = test system: ABUTH; assay: Pre-emergence action against ABUTH; assay type: in vivo, Abutilon theophrasti; details: pre-emergence, dosage 320 g/ha, scored visually after 3 weeks vs untreated controls
Procedure, shortened: as §1

[9] = test system: CYPES; assay: Post-emergence action against CYPES; assay type: in vivo, Cyperus esculentus; details: post-emergence, dosage 80 g/ha, visual assessment about 3 weeks after treatment vs untreated controls
Procedure, shortened: as §2

[10] = test system: CYPES; assay: Pre-emergence action against CYPES; assay type: in vivo, Cyperus esculentus; details: pre-emergence, dosage 320 g/ha, scored visually after 3 weeks vs untreated controls
Procedure, shortened: as §1

[11] = test system: SETVI; assay: Pre-emergence action against SETVI; assay type: in vivo, Setaria viridis; details: pre-emergence, dosage 320 g/ha, scored visually after 3 weeks vs untreated controls
Procedure, shortened: as §1

[12] = test system: VIOTR; assay: Pre-emergence action against VIOTR; assay type: in vivo, Viola tricolor; details: Dosage 320 g/ha, pre-emergence
Procedure, shortened: as §1

[13] = test system: ECHCG; assay: Post-emergence action against ECHCG; assay type: in vivo, Echinochloa crus-galli; details: post-emergence, dosage 80 g/ha, visual assessment about 3 weeks after treatment vs untreated controls
Procedure, shortened: as §2

[14] = test system: STEME; assay: Pre-emergence action against STEME; assay type: in vivo, Stellaria media; details: Dosage 320 g/ha, pre-emergence
Procedure, shortened: as §1

[15] = test system: POLCO; assay: Post-emergence action against POLCO; assay type: in vivo, Polygonum convolvulus; details: post-emergence, dosage 80 g/ha
Experimental: Seeds of monocotyledonous and dicotyledonous weed and crop plants are laid out in sandy loam soil in wood-fiber pots, covered with soil and cultivated in a greenhouse under good growth conditions. 2 to 3 weeks after sowing, the test plants are treated at the one-leaf stage. The compounds of the invention, formulated in the form of wettable powders (WP) or as emulsion concentrates (EC), are then sprayed onto the green parts of the plants in the form of an aqueous suspension or emulsion at a water application rate equating to […], with addition of 0.2% wetting agent. After the test plants have been left to stand in the greenhouse under optimal growth conditions for about 3 weeks, the action of the preparations is assessed visually in comparison to untreated controls (herbicidal action in percent (%): 100% activity=the plants have died, 0% activity=like control plants). […] At the same time, inventive compounds leave Gramineae crops such as barley, wheat, rye, millet/Sorghum, corn or rice virtually undamaged when applied post-emergence, even at high active ingredient dosages. In addition, some substances are also harmless to dicotyledonous crops such as soya, cotton, oilseed rape, sugar beet or potatoes. Some of the compounds according to the invention have high selectivity and are therefore suitable for controlling unwanted vegetation in agricultural crops by the post-emergence method. The data of Tables B18 to B34 below illustrate, in an exemplary manner, the […] herbicidal action of the compounds according to the invention, the herbicidal activity being stated in percent.

[16] = test system: ECHCG; assay: Pre-emergence action against ECHCG; assay type: in vivo, Echinochloa crus-galli; details: pre-emergence, dosage 320 g/ha, scored visually after 3 weeks vs untreated controls
Procedure, shortened: as §1

[17] = test system: SETVI; assay: Post-emergence action against SETVI; assay type: in vivo, Setaria viridis; details: post-emergence, dosage 80 g/ha, visual assessment about 3 weeks after treatment vs untreated controls
Procedure, shortened: as §2

[18] = test system: ABUTH; assay: Post-emergence action against ABUTH; assay type: in vivo, Abutilon theophrasti; details: post-emergence, dosage 80 g/ha, visual assessment about 3 weeks after treatment vs untreated controls
Procedure, shortened: as §2

[19] = test system: PHBPU; assay: Pre-emergence action against PHBPU; assay type: in vivo, Pharbitis purpurea; details: Dosage 320 g/ha, pre-emergence
Procedure, shortened: as §1

[20] = test system: PHBPU; assay: Post-emergence action against PHBPU; assay type: in vivo, Pharbitis purpurea; details: post-emergence, dosage 80 g/ha
Procedure, shortened: as §2

[21] = test system: VERPE; assay: Pre-emergence action against VERPE; assay type: in vivo, Veronica persica; details: Dosage 320 g/ha, pre-emergence
Procedure, shortened: as §1

[22] = test system: VERPE; assay: Post-emergence action against VERPE; assay type: in vivo, Veronica persica; details: dosage 80 g/ha
Procedure, shortened: as §2

[23] = test system: AVEFA; assay: Pre-emergence action against AVEFA; assay type: in vivo, Avena fatua; details: dosage 320 g/ha, scored visually after 3 weeks vs untreated controls
Procedure, shortened: as §1

[24] = test system: AMARE; assay: Post-emergence action against AMARE; assay type: in vivo, Amaranthus retroflexus; details: post-emergence, dosage 80 g/ha, visual assessment about 3 weeks after treatment vs untreated controls
Procedure, shortened: as §2

Row | Structure (SMILES) | Pre-emergence action against AMARE (herbicidal activity) [1] [%] | Post-emergence action against VIOTR [2] | Post-emergence action against STEME [3] | Pre-emergence action against MATIN [4] [%] | Pre-emergence action against ALOMY (herbicidal activity in percent) [5] [%] | Post-emergence action against MATIN (herbicidal action in percent) [6] [%] | Pre-emergence action against POLCO [7] [%] | Pre-emergence action against ABUTH (herbicidal activity) [8] [%] | Post-emergence action against CYPES (herbicidal action in percent) [9] [%] | Pre-emergence action against CYPES (herbicidal activity) [10] [%] | SETVI (Table B8, pre-emergence herbicidal activity) [11] [%] | Pre-emergence action against VIOTR [12] [%] | Post-emergence action against ECHCG (herbicidal action in percent) [13] [%] | Pre-emergence action against STEME [14] [%] | Post-emergence action against POLCO [15] | Pre-emergence action against ECHCG (herbicidal activity) [16] [%] | Post-emergence action against SETVI (herbicidal action in percent) [17] [%] | Post-emergence action against ABUTH (herbicidal action in percent) [18] [%] | Post-emergence action against PHBPU [20] | Pre-emergence action against VERPE [21] [%] | further results
1 | CCCn1nnnc1NC(=O)c1ccc(C(F)(F)F)c(C(C)=O)c1OC [3-48] | 100 | 100 | 100 | 100 | 90 | 100 | 80 | 100 | 90 | 90 | 100 | 100 | 90 | 90 | 80 | 100 | 80 | 100 | 100 | 90 | Pre-emergence action against PHBPU [19]: 80%; Post-emergence action against VERPE [22]: 80
2 | CCCn1nnnc1NC(=O)c1ccc(C(F)(F)F)c(C(C)=O)c1Br [3-195] | 100 | 90 | 90 | 100 | 80 | 90 | – | 100 | 80 | 90 | 100 | 100 | 90 | 90 | 90 | 100 | 90 | – | 90 | 100 | Pre-emergence action against AVEFA (herbicidal activity) [23]: 90%; Pre-emergence action against PHBPU [19]: 90%
3 | CCn1nnnc1NC(=O)c1ccc(Cl)c(C(=O)C(C)C)c1Cl [2-280] | 100 | 90 | 100 | 100 | 100 | 90 | 80 | 100 | – | – | – | – | 90 | 90 | 80 | 100 | 90 | 90 | 100 | 90 | Post-emergence action against AMARE (herbicidal action in percent) [24]: 100%
4 | CC(=O)c1c(C)ccc(C(=O)Nc2nnnn2C)c1C [1-1] | – | – | – | – | – | – | – | – | – | – | – | – | – | – | – | – | – | – | – | – | pest or weed control at 320 g/ha ([1]; Amaranthus retroflexus, 504 h, read-out: Pre-emergence action against AMARE (herbicidal activity)): 100%; pest or weed control at 80 g/ha ([2]; Viola tricolor, 504 h): 100%; pest or weed control at 80 g/ha ([3]; Stellaria media, 504 h): 100%; pest or weed control at 320 g/ha ([4]; Tripleurospermum inodorum, 504 h): 100%; pest or weed control at 320 g/ha ([5]; Alopecurus myosuroides, 504 h, read-out: Pre-emergence action against ALOMY (herbicidal activity in percent)): 80%; pest or weed control at 80 g/ha ([6]; Tripleurospermum inodorum, 504 h, read-out: Post-emergence action against MATIN (herbicidal action in percent)): 80%; pest or weed control at 320 g/ha ([7]; Fallopia convolvulus, 504 h): 80%; pest or weed control at 320 g/ha ([8]; Abutilon theophrasti, 504 h, read-out: Pre-emergence action against ABUTH (herbicidal activity)): 90%; pest or weed control at 320 g/ha ([11]; Setaria viridis, 504 h, read-out: SETVI (Table B8, pre-emergence herbicidal activity)): 90%; pest or weed control at 320 g/ha ([12]; Viola tricolor, 504 h): 100%; pest or weed control at 80 g/ha ([13]; Echinochloa crus-galli, 504 h, read-out: Post-emergence action against ECHCG (herbicidal action in percent)): 100%; pest or weed control at 320 g/ha ([14]; Stellaria media, 504 h): 90%; pest or weed control at 80 g/ha ([15]; Fallopia convolvulus, 504 h): 80%; pest or weed control at 320 g/ha ([16]; Echinochloa crus-galli, 504 h, read-out: Pre-emergence action against ECHCG (herbicidal activity)): 90%; pest or weed control at 80 g/ha ([18]; Abutilon theophrasti, 504 h, read-out: Post-emergence action against ABUTH (herbicidal action in percent)): 100%; pest or weed control at 80 g/ha ([24]; Amaranthus retroflexus, 504 h, read-out: Post-emergence action against AMARE (herbicidal action in percent)): 100%; pest or weed control at 80 g/ha ([20]; Ipomoea purpurea, 504 h): 90%
5 | CCn1nnnc1NC(=O)c1ccc(C)c(C(C)=O)c1C [2-1] | 100 | 100 | 80 | 90 | 90 | 90 | 90 | 90 | – | 80 | 90 | 100 | 100 | 90 | 100 | 90 | 80 | 80 | 90 | – | Post-emergence action against AMARE (herbicidal action in percent) [24]: 100%
